The text below walks through data of patent US20100179188A1, “NITROXIDE RADICAL AS TREATMENT FOR NEURODEGENERATION” (Office of Technology Transfer, NIH, priority 2007, published 2010).

The structures appear in SMILES notation.

For one series, the system named is TfR1. As to the kind of experiment: Western blot of TfR1 in brain-region lysates of IRP2−/− mice. The series is classed as in vivo. The following applies: lysates from cerebellum, brain-stem and forebrain of IRP2−/− mice, Tempo1 diet vs control diet. The procedure: (§1) Diet: The mice were weaned 3-4 weeks after their birth. Immediately after weaning, mice were maintained on either a Tempo1-supplemented or control diet. In the Tempo1-supplemented diet, powdered Tempo1 was uniformly mixed with bacon-flavored mouse chow by a “cold press” technique (Bio-Serv, Frenchtown, N.J., USA) at a concentration of 10 mg/g of food. Bacon-flavored chow without Tempo1 was used as the control diet.
(§2) Tissue and lysate preparation: Animals were euthanized and tissues were frozen in liquid nitrogen immediately after harvesting, and stored at −80° C. under argon. Experiments were performed on tissues that were pulverized in liquid N2-cooled mortars in an anaerobic chamber, and then lysed in lysis buffer that was deaerated by cyclic freezethaw and air-removal with argon. […]
(§3) Lysates made from various brain regions of IRP2−/− mice that were maintained on a control diet or on a Tempo1-supplemented diet were analyzed for IRE binding activity of IRP1 and for TfR1, IRP1, and actin protein levels by gel-shift assay and Western blot. […] FIG. 3b is a quantification of the results as intensity of the bands relative to the control, represented here as 100%. Quantification was performed with the IQMac (IRP1 activity) or NIH Image (protein levels) program. Error bars represent the standard deviation calculated from the results of two different sets of animals.
(In western blotting, separated proteins are transferred to a membrane and probed.)

In the next series the test system is IRP1. As to the kind of experiment: Western blot of IRP1 protein in brain-region lysates of IRP2−/− mice. The series is classed as in vivo. The settings on record: cerebellum, brain-stem and forebrain of IRP2−/− mice, Tempo1 diet vs control diet. On the procedure: as §1, §2, §3
The target in a further series is T1, mitochondrial aconitase (Mus musculus, UniProt Q99KI0).
T1 construct: endogenous in cells; host or cells: mouse embryonic fibroblasts
T1 sequence (Q99KI0 28-780): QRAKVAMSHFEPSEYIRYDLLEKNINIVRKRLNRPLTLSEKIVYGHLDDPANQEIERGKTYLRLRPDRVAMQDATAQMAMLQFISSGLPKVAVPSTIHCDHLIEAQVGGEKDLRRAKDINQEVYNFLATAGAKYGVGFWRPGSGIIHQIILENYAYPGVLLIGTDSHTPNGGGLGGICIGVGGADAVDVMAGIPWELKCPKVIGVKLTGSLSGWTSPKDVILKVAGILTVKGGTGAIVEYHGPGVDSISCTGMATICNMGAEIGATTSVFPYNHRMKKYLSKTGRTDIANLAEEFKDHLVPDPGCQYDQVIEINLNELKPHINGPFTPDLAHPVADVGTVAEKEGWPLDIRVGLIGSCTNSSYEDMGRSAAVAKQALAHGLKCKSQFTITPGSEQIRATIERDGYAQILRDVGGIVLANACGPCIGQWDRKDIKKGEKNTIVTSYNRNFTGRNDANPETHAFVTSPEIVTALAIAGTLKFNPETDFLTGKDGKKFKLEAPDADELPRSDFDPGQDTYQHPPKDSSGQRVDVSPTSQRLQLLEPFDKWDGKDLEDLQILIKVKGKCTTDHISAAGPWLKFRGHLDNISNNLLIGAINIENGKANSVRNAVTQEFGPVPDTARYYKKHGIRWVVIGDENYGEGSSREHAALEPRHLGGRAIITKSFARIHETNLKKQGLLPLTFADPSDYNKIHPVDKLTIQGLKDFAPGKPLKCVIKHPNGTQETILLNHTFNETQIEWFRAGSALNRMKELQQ
As to the kind of experiment: In-gel aconitase assay in mouse embryonic fibroblasts, mitochondrial aconitase. In kind it is cell-based. On the procedure: Cells: Embryonic fibroblasts of 13-day old embryos were isolated from wild type, IRP1−/− mice and IRP2−/− mice as described in LaVaute et al. supra. Myc-tagged HEK 293 Tet-on cell line, in which IRP2 expression was inducible, was prepared and cultured as described Bourdon et al., Blood Cells Mol Dis, 31, 247-255 (2003). Erythroblasts were harvested from bone marrow and purified as described in Cooperman et al., Blood, 106, 1084-1091 (2005).
Aconitase assay: Aconitase activity gels for human lysates were performed as described in Tong et al., infra, and aconitase activity gels for mouse lysate were performed with the following modifications. […] Spectral aconitase activity was measured by following the method of Fillebeen et al., infra, using cis-aconitate as the substrate.
To determine whether the effect of Tempo1 on IRP1 activity was kinetically consistent with oxidative disassembly of the iron sulfur cluster, the effect of Tempo1 on aconitase activity was compared to that of the iron chelator, deferiprone (DFO), which activates IRE-binding activity of IRP1 by limiting de novo synthesis and repair of the iron sulfur cluster in IRP1. […] Recovery of aconitase activity was assessed in wild type and IRP2−/− cells.

Take `CC1(C)CC(O)CC(C)(C)N1[O]` [Tempo1]: the TfR1 protein levels result in the series with TfR1 is reported as “markedly increased”. For the same compound, the IRP1 protein levels result in the series with IRP1 is on record as “did not significantly change”. The mitochondrial aconitase activity result at mitochondrial aconitase is reported as “does not substantially affect”.
